Laboratory results reported in patent publication US12448377B2, “Heterocyclic compound” (Takeda Pharmaceutical Company Limited, priority 2019, dated 2025).

Target: T1, human orexin type 2 receptor (Homo sapiens, UniProt O43614)
T1 construct: expressed in transfected cells
T1 sequence (O43614 1-444): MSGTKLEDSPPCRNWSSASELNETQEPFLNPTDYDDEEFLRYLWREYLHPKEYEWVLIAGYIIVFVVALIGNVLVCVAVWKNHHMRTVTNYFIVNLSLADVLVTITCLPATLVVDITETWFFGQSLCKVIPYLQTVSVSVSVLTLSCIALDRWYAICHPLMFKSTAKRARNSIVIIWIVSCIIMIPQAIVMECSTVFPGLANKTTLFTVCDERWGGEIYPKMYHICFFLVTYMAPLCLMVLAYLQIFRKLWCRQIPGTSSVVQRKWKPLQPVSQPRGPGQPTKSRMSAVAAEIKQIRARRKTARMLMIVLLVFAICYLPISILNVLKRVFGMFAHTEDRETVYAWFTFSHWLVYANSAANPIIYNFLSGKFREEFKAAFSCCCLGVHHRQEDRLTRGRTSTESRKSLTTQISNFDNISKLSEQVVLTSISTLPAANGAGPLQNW
Assay: Measurement of orexin type 2 receptor agonist activity (calcium fluorescence, CHO cells forcibly expressing human OX2 receptor)
Assay type: cell-based
Settings: compound at 3 μM, DMSO = 0%, orexin A (human) 10 nM = 100%
Source text: To obtain a cell clone stably expressing human orexin type 2 receptor, human orexin type 2 receptor cDNA was inserted into pcDNA3.1(+) plasmid vector (Invitrogen), and a plasmid DNA for expression of human orexin type 2 receptor (pcDNA3.1(+)/hOX2R) was cloned. The plasmid DNA was introduced into CHO-K1 cell by an electroporation method, and human orexin type 2 receptor-expressing clonal cells were obtained by limiting dilution method using G418 drug resistance as a selection marker.
CHO cells forcibly expressing human OX2 receptor were seeded in each well of 384 well black transparent bottom plate (BD Falcon) at 10,000 cells/well, and cultured for one day in a 5% CO2 incubator at 37° C. After removal of the medium in the cell plate, assay buffer A containing a calcium indicator (HBSS (Thermo Fisher Scientific), 20 mM HEPES (Thermo Fisher Scientific), 0.1% BSA (Sigma-Aldrich), 2.5 μg/mL Fluo-4 AM (DOJINDO Chemical), 0.08% Pluronic F127 (DOJINDO Chemical), 1.25 mM probenecid (DOJINDO Chemical)) was added thereto at 30 μL/well. The plate was stood for 30 min in a 5% CO2 incubator at 37° C., and further stood at room temperature for 30 min. A test compound prepared by diluting with assay buffer B (HBSS, 20 mM HEPES, 0.1% BSA) was added thereto at 10 μL/well, and the fluorescence value was measured by FDSSμCELL (Hamamatsu Photonics K.K.) every one sec for 1 min, and thereafter every two sec for 1 min 40 sec. The activity (%) of the test compound was calculated assuming that variation in the fluorescence value when DMSO was added instead of the test compound was 0%, and variation in the fluorescence value when orexin A (human) (PEPTIDE INSTITUTE, INC.) was added at the final concentration of 10 nM was 100%.

## Cc1ccc2n(c1=O)C(COC1CCC(C)CC1)C(NS(=O)(=O)N(C)C)CC2 (racemic) [Example 26, rac-N,N-dimethyl-N′-[(3S,4R)-7-methyl-4-({[(1s,4S)-4-methylcyclohexyl]oxy}methyl)-6-oxo-1,3,4,6-tetrahydro-2H-quinolizin-3-yl]sulfuric diamide]
  OX2R agonist activity (3 μM, %): 86%

## CCS(=O)(=O)NC1CCc2ccc(C)c(=O)n2C1COC1CCC(c2cccc(C)c2)CC1 (racemic) [Example 22, rac-N-[(3S,4R)-7-methyl-4-({[(1s,4S)-4-(3-methylphenyl)cyclohexyl]oxy}methyl)-6-oxo-1,3,4,6-tetrahydro-2H-quinolizin-3-yl]ethanesulfonamide]
  OX2R agonist activity (3 μM, %): 83%

## CCCOC1CCC(OCC2C(NS(C)(=O)=O)CCc3ccc(C)c(=O)n32)CC1 [Example 107, rel-N-[(3S,4R)-7-methyl-6-oxo-4-({[(1s,4S)-4-propoxycyclohexyl]oxy}methyl)-1,3,4,6-tetrahydro-2H-quinolizin-3-yl]methanesulfonamide]
  OX2R agonist activity (3 μM, %): 65%

## Cc1ccc(C2CCC(OCC3C(NS(=O)(=O)N(C)C)CCc4ccc(C)c(=O)n43)CC2)cc1 (racemic) [Example 35, rac-N,N-dimethyl-N′-[(3S,4R)-7-methyl-4-({[(1s,4S)-4-(4-methylphenyl)cyclohexyl]oxy}methyl)-6-oxo-1,3,4,6-tetrahydro-2H-quinolizin-3-yl]sulfuric diamide]
  OX2R agonist activity (3 μM, %): 88%

## Cc1ccc2n(c1=O)C(COC1CCC(c3c(F)cccc3F)CC1)C(NS(C)(=O)=O)CC2 [Example 89, rel-N-[(3S,4R)-4-({[(1s,4S)-4-(2,6-difluorophenyl)cyclohexyl]oxy)methyl)-7-methyl-6-oxo-1,3,4,6-tetrahydro-2H-quinolizin-3-yl]methanesulfonamide]
  OX2R agonist activity (3 μM, %): 89%

## CCC1CCC(OCC2C(NS(C)(=O)=O)CCc3c(C4CC4)cc(C)c(=O)n32)CC1 [Example 115, rel-N-[(3S,4R)-9-cyclopropyl-4-({[(1s,4S)-4-ethylcyclohexyl]oxy)methyl)-7-methyl-6-oxo-1,3,4,6-tetrahydro-2H-quinolizin-3-yl]methanesulfonamide]
  OX2R agonist activity (3 μM, %): 100%

## Cc1ccc2n(c1=O)C(COC1CCC(C(C)C)CC1)C(NS(=O)(=O)C1CC1)CC2 (racemic) [Example 14, rac-N-[(3S,4R)-7-methyl-6-oxo-4-({[(1s,4S)-4-(propan-2-yl)cyclohexyl]oxy}methyl)-1,3,4,6-tetrahydro-2H-quinolizin-3-yl]cyclopropanesulfonamide]
  OX2R agonist activity (3 μM, %): 100%

## CCc1ccc2n(c1=O)C(COC1CCC(C)CC1)C(NS(C)(=O)=O)CC2 (racemic) [Example 2, rac-N-[(3S,4R)-7-ethyl-4-({[(1s,4S)-4-methylcyclohexyl]oxy}methyl)-6-oxo-1,3,4,6-tetrahydro-2H-quinolizin-3-yl]methanesulfonamide]
  OX2R agonist activity (3 μM, %): 94%

## Cc1ccc2n(c1=O)C(COC1CCC(C(C)C)CC1)C(NS(C)(=O)=O)CC2 (racemic) [Example 12, rac-N-[(3S,4R)-7-methyl-6-oxo-4-({[(1s,4S)-4-(propan-2-yl)cyclohexyl]oxy}methyl)-1,3,4,6-tetrahydro-2H-quinolizin-3-yl] methanesulfonamide]
  OX2R agonist activity (3 μM, %): 96%

## COc1ccccc1C1CCC(OCC2C(NS(C)(=O)=O)CCc3ccc(C)c(=O)n32)CC1 [Example 90, rel-N-[(3S,4R)-4-({[(1s,4S)-4-(2-methoxyphenyl)cyclohexyl]oxy}methyl)-7-methyl-6-oxo-1,3,4,6-tetrahydro-2H-quinolizin-3-yl]methanesulfonamide]
  OX2R agonist activity (3 μM, %): 87%

## CCS(=O)(=O)NC1CCc2ccc(C)c(=O)n2C1COC1CCC(C(F)(F)F)CC1 (racemic) [Example 38, rac-N-[(3S,4R)-7-methyl-6-oxo-4-({[(1s,4S)-4-(trifluoromethyl)cyclohexyl]oxy}methyl)-1,3,4,6-tetrahydro-2H-quinolizin-3-yl]ethanesulfonamide]
  OX2R agonist activity (3 μM, %): 88%

## Cc1ccc2n(c1=O)C(COC1CCC(C(C)(C)C)CC1)C(NS(=O)(=O)C1CC1)CC2 (racemic) [Example 24, rac-N-[(3S,4R)-4-({[(1s,4S)-4-tert-butylcyclohexyl]oxy}methyl)-7-methyl-6-oxo-1,3,4,6-tetrahydro-2H-quinolizin-3-yl]cyclopropanesulfonamide]
  OX2R agonist activity (3 μM, %): 86%

## CCC1CCC(OCC2C(NS(C)(=O)=O)CCc3ccc(C4CC4)c(=O)n32)CC1 [Example 66, rel-N-[(3S,4R)-7-cyclopropyl-4-({[(1s,4S)-4-ethylcyclohexyl]oxy}methyl)-6-oxo-1,3,4,6-tetrahydro-2H-quinolizin-3-yl]methanesulfonamide]
  OX2R agonist activity (3 μM, %): 96%

## C/C=C\C1CCC(OCC2C(NS(C)(=O)=O)CCc3ccc(C)c(=O)n32)CC1 (racemic) [Example 110, rac-N-{(3S,4R)-7-methyl-6-oxo-4-[({(1s,4S)-4-[(1Z)-prop-1-en-1-yl]cyclohexyl}oxy)methyl]-1,3,4,6-tetrahydro-2H-quinolizin-3-yl}methanesulfonamide]
  OX2R agonist activity (3 μM, %): 91%

## CCc1ccc2n(c1=O)C(COC1CCC(C)CC1)C(NS(=O)(=O)CC)CC2 [Example 71, rel-N-[(3S,4R)-7-ethyl-4-(([(1s,4S)-4-methylcyclohexyl]oxy}methyl)-6-oxo-1,3,4,6-tetrahydro-2H-quinolizin-3-yl)ethanesulfonamide]
  OX2R agonist activity (3 μM, %): 99%

## Cc1ccc2n(c1=O)C(COC1CCC(COC3CCCCO3)CC1)C(NS(C)(=O)=O)CC2 (racemic) [Example 82, N-[(3SR,4RS)-7-methyl-4-(([(1s,4S)-4-{[(oxay-2-yl)oxy]methyl}cyclohexyl]oxy}methyl)-6-oxo-1,3,4,6-tetrahydro-2H-quinolizin-3-yl]methanesulfonamide]
  OX2R agonist activity (3 μM, %): 56%

## Cc1ccc2n(c1=O)C(COC1CCC(c3ccc(F)cc3)CC1)C(NS(C)(=O)=O)CC2 (racemic) [Example 40, rac-N-[(3S,4R)-4-({[(1s,4S)-4-(4-fluorophenyl)cyclohexyl]oxy}methyl)-7-methyl-6-oxo-1,3,4,6-tetrahydro-2H-quinolizin-3-yl]methanesulfonamide]
  OX2R agonist activity (3 μM, %): 89%

## Cc1ccc2n(c1=O)C(COC1CCC(c3ccccc3F)CC1)C(NS(=O)(=O)C1CC1)CC2 (racemic) [Example 45, rac-N-[(3S,4R)-4-({[(1s,4S)-4-(2-fluorophenyl)cyclohexyl]oxy}methyl)-7-methyl-6-oxo-1,3,4,6-tetrahydro-2H-quinolizin-3-yl]cyclopropanesulfonamide]
  OX2R agonist activity (3 μM, %): 95%

## Cc1ccc2n(c1=O)C(COC1CCC(OCC3CC3)CC1)C(NS(C)(=O)=O)CC2 [Example 114, rel-N-[(3S,4R)-4-(([(1s,4S)-4-(cyclopropylmethoxy)cyclohexyl]oxy}methyl)-7-methyl-6-oxo-1,3,4,6-tetrahydro-2H-quinolizin-3-yl]methanesulfonamide]
  OX2R agonist activity (3 μM, %): 69%

## Cc1ccccc1C1CCC(OCC2C(NS(=O)(=O)C3CC3)CCc3ccc(C)c(=O)n32)CC1 (racemic) [Example 20, rac-N-[(3S,4R)-7-methyl-4-({[(1s,4S)-4-(2-methylphenyl)cyclohexyl]oxy}methyl)-6-oxo-1,3,4,6-tetrahydro-2H-quinolizin-3-yl]cyclopropanesulfonamide]
  OX2R agonist activity (3 μM, %): 97%

## Cc1ccc2n(c1=O)C(COC1CCC(C3CC3C)CC1)C(NS(C)(=O)=O)CC2 (racemic) [Example 97, N-{7-methyl-4-[({(1S,4S)-4-[(1RS,2SR)-2-methylcyclopropyl]cyclohexyl)oxy)methyl]-6-oxo-1,3,4,6-tetrahydro-2H-quinolizin-3-yl]methanesulfonamide]
  OX2R agonist activity (3 μM, %): 94%

## CCOCC1CCC(OCC2C(NS(C)(=O)=O)CCc3ccc(C)c(=O)n32)CC1 (racemic) [Example 81, rac-N-[(3S,4R)-4-({[(1s,4S)-4-(ethoxymethyl)cyclohexyl]oxy}methyl)-7-methyl-6-oxo-1,3,4,6-tetrahydro-2H-quinolizin-3-yl]methanesulfonamide]
  OX2R agonist activity (3 μM, %): 102%

## COC1CCC(OCC2C(NS(C)(=O)=O)CCc3ccc(C)c(=O)n32)CC1 (racemic) [Example 4, N-[(3SR,4RS)-4-{[(4-methoxycyclohexyl)oxy]methyl}-7-methyl-6-oxo-1,3,4,6-tetrahydro-2H-quinolizin-3-yl]methanesulfonamide]
  OX2R agonist activity (3 μM, %): 58%
